# Tests used:
# Assay in all cases: relative viability (nuclei count vs DMSO), 5 days (fraction); higher = more cells survive
# Vismodegib + Luminespib = compound: CS(=O)(=O)c1ccc(C(=O)Nc2ccc(Cl)c(-c3ccccn3)c2)c(Cl)c1 [Vismodegib] + CCNC(=O)c1noc(-c2cc(C(C)C)c(O)cc2O)c1-c1ccc(CN2CCOCC2)cc1 [Luminespib] (partner 0.01 µM)
# Method in brief: (§1)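 One day after seeding in 1536-well plates, lung cancer cell lines were dosed by pin tool. Dosing was either single-drug or a fixed anchor-drug dose plus five library-drug doses (not always all listed) in √10 steps. After 5 days, nuclei were stained in one fix-and-stain step and counted on 4× images, and relative viability is the nuclei count of treated wells over that of vehicle wells, given as the median of duplicate plates.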
# VE-821 + Phenformin = compound: CS(=O)(=O)c1ccc(-c2cnc(N)c(C(=O)Nc3ccccc3)n2)cc1 [VE-821] + N=C(N)NC(=N)NCCc1ccccc1 [Phenformin] (partner 250 µM)
# Method in brief: as §1
# Vismodegib + Trametinib = compound: CS(=O)(=O)c1ccc(C(=O)Nc2ccc(Cl)c(-c3ccccn3)c2)c(Cl)c1 [Vismodegib] + CC(=O)Nc1cccc(-n2c(=O)n(C3CC3)c(=O)c3c(Nc4ccc(I)cc4F)n(C)c(=O)c(C)c32)c1 [Trametinib] (partner 0.02 µM)
# Method in brief: as §1
# VE-821 + Navitoclax = compound: CS(=O)(=O)c1ccc(-c2cnc(N)c(C(=O)Nc3ccccc3)n2)cc1 [VE-821] + CC1(C)CCC(c2ccc(Cl)cc2)=C(CN2CCN(c3ccc(C(=O)NS(=O)(=O)c4ccc(N[C@H](CCN5CCOCC5)CSc5ccccc5)c(S(=O)(=O)C(F)(F)F)c4)cc3)CC2)C1 [Navitoclax] (partner 0.5 µM)
# Method in brief: as §1
Cell Line,relative viability (Vismodegib + Luminespib; first compound 0.08 µM),relative viability (Vismodegib + Luminespib; first compound 0.253 µM),relative viability (Vismodegib + Luminespib; first compound 0.8 µM),relative viability (Vismodegib + Luminespib; first compound 2.53 µM),relative viability (Vismodegib + Luminespib; first compound 8 µM),relative viability (VE-821 + Phenformin; first compound 0.08 µM),relative viability (VE-821 + Phenformin; first compound 0.253 µM),relative viability (VE-821 + Phenformin; first compound 0.8 µM),relative viability (VE-821 + Phenformin; first compound 2.53 µM),relative viability (VE-821 + Phenformin; first compound 8 µM),relative viability (Vismodegib + Trametinib; first compound 0.08 µM),relative viability (Vismodegib + Trametinib; first compound 0.253 µM),relative viability (Vismodegib + Trametinib; first compound 0.8 µM),relative viability (Vismodegib + Trametinib; first compound 2.53 µM),relative viability (Vismodegib + Trametinib; first compound 8 µM),relative viability (VE-821 + Navitoclax; first compound 0.08 µM),relative viability (VE-821 + Navitoclax; first compound 0.253 µM),relative viability (VE-821 + Navitoclax; first compound 0.8 µM),relative viability (VE-821 + Navitoclax; first compound 2.53 µM),relative viability (VE-821 + Navitoclax; first compound 8 µM)
H3255,0.798,0.996,0.799,0.818,0.857,0.377,0.338,0.42,0.344,0.383,0.648,0.602,0.573,0.614,0.668,0.563,0.485,0.571,0.56,0.425
NCI-H1651,0.816,0.819,0.86,0.866,0.791,0.349,0.305,0.361,0.32,0.283,0.813,0.822,0.81,0.815,0.84,0.97,0.941,0.949,1.02,0.864
NCI-H1734,0.19,0.186,0.166,0.198,0.189,0.392,0.386,0.377,0.402,0.271,0.627,0.566,0.636,0.689,0.817,1.03,0.875,0.79,0.862,0.63
CAL-12T,0.531,0.366,0.436,0.503,0.575,0.585,0.526,0.611,0.523,0.396,0.309,0.333,0.372,0.355,0.426,1.21,1.26,1.22,1.05,1.1

# Source: the supplement of paper PMC10307832
